Where two headings read alike, the source gives them in different places. Each block holds one compound with its values, some of them ahead of it.
How the values were obtained:
cancer cells = test system: cancer cells; parameters: method as in PMID 30127485, PMID 22908556; settings: cancer cells in vitro; cited from earlier work
NF-κB = settings: cited from earlier work
SAOS-2 = assay: MTT viability test, osteosarcoma cells with p53 deletion; settings: Homo sapiens
Experimental: (§6) Two osteosarcoma cell lines: U-2 OS (with wild-type p53 status) and SAOS-2 (p53 null cell line) were used to evaluate cytotoxic activity of 1 and 2. Doxorubicin was employed as a reference drug. Viability of the cells treated by 1 or 2 (concentration range 0.014–50.0 µM) for 24 and 48 h was assessed by thiazolyl blue tetrazolium bromide (MTT) test.
(§7) Human osteosarcoma cell lines U-2 OS (ATCC HTB-96; wild-type p53 status) and SAOS-2 (ATCC HTB-85; p53 deletion) were cultured in McCoy’s 5A medium containing L-glutamine and supplemented with 10% FBS at 37 °C and in a humidified atmosphere with 5% CO2. […] After that, working solutions were diluted with culture media to the final 1× concentrations (0.014–50 μM).
(§8) For the MTT assay, the osteosarcoma cells suspended in the nutrient medium were seeded into 96-well microtiter plates (density 1.0 × 10^4 per well) and preincubated for 24 h (37 °C, 5% CO2). Subsequently, the cells were treated with 1 or 2 at different concentrations (0.014–50 μM) and further cultivated for another 24 or 48 h. After that, MTT was added for 1 h at the final concentration of 500 ng/mL. The culture medium was removed and the formazan crystals were dissolved in isopropanol containing 40 mM HCl. Absorbance was measured using Tecan microplate reader at 570 nm with the reference wavelength of 650 nm. […] Data were analyzed using Origin software.

U-2 OS = assay: MTT viability test, osteosarcoma cells with wild-type p53 status; settings: Homo sapiens, U2OS
Experimental: as §6, §7, §8

[1] = test system: CCL2 secretion by LPS-stimulated human neutrophils; assay: CCL2 release, ELISA; assay type: cell-based; settings: 0.5, 1.0 and 2.5 µM, 24 h after LPS stimulation
Experimental: (§1) In response to stimulation with proinflammatory agents, e.g., LPS or f-MLP, human neutrophils excrete an array of cytokines and chemokines, including TNF-α, IL-1β, IL-8 and CCL2 [29, 30]. In the present study, neutrophils were pretreated with the examined compounds (1 or 2) before their priming with LPS. Levels of IL-1β, IL-8, TNF-α and CCL2 were determined in the culture medium, using ELISA, 24 h after LPS stimulation.
(§2) Neutrophils (2 × 10^6) were cultured in 24-well plates in RPMI 1640 medium with 10% FBS, 10 mM HEPES and 2 mM L-glutamine, in the presence or absence of LPS (100 ng/mL) and in the absence or presence of 1 or 2 (final concentrations of the examined germacranolide in a range of 0.5–2.5 μM), at 37 °C with 5% CO2. The neutrophils were harvested after 24 h and centrifuged (2000 r.p.m., 10 min, 4 °C). The amount of released cytokines was measured by enzyme-linked immunosorbent assay (ELISA) following the manufacturer’s instructions (BD Biosciences, USA). The effects on IL-8, IL-1β, CCL2 and TNF-α production by the neutrophils were calculated by comparing the percentages of the released agents to the stimulated control without the tested compound.

[2] = test system: human polymorphonuclear leukocytes (PMNs); assay: Cytotoxicity to neutrophils, propidium iodide staining and flow cytometry; assay type: cell-based; settings: at 2.5 µM or lower concentrations, 24 h incubation
Experimental: Cytotoxicity of 1 and 2 to human polymorphonuclear leukocytes (PMNs) was evaluated using propidium iodide (PI) staining and flow cytometry (FACS) analysis. The compounds were nontoxic in PMNs at 2.5 µM or lower concentrations (Figure 4).
Cytotoxicity was assessed by a standard flow cytometric probe using propidium iodide (PI) staining. After 24 h of incubation in the absence or presence of the tested germacranolide (at concentrations of 0.5, 1.0, 2.5 and 5.0 μM), the neutrophils (3.5 × 10^5) were harvested and centrifuged (1500 r.p.m., 10 min, 4 °C), washed once with cold PBS and resuspended in 400 μL of PBS. A 5 μL aliquot of PI solution (50 μg/mL) was added to the cell suspension. After 15 min of incubation with PI at room temperature, cells were analyzed by BD FACSCalibur flow cytometer (BD Biosciences, San Jose, CA, USA), and 10,000 events were recorded per sample.

[3] = test system: IL-1β secretion by LPS-stimulated human neutrophils; assay: IL-1β release, ELISA; assay type: cell-based; settings: 0.5, 1.0 and 2.5 µM, 24 h after LPS stimulation
Experimental: as §1, §2

[4] = test system: IL-8 secretion by LPS-stimulated human neutrophils; assay: IL-8 release, ELISA; assay type: cell-based; settings: 0.5, 1.0 and 2.5 µM, 24 h after LPS stimulation
Experimental: as §1, §2

[5] = test system: TNF-α secretion by LPS-stimulated human neutrophils; assay: TNF-α release, ELISA; assay type: cell-based
Experimental: as §1, §2

MCF-7 cell line = test system: MCF-7 cell line; parameters: method as in PMID 30127485; settings: cited from earlier work
[6] = test system: ROS release from f-MLP-stimulated human neutrophils; assay: ROS production, luminol-dependent chemiluminescence; assay type: cell-based; settings: f-MLP stimulation, concentration range 1–2.5 μM
Experimental: Activation of PMNs, either at a site of inflammation or induced in vitro by proinflammatory agents, results in an oxidative burst in these cells. The phenomenon is characterized by intense ROS generation and liberation of proteolytic enzymes from azurophilic granules. An effect of the sesquiterpene lactones 1 and 2 on ROS production in PMNs was assessed in response to N-formyl-Met-Leu-Phe (f-MLP) stimulation.
ROS production was measured using luminol-dependent chemiluminescence test. A 70 μL aliquot of neutrophil suspension (3.5 × 10^5) in (Ca^2+)-free HBSS buffer, 50 μL of the tested compound solution and 50 μL of luminol (100 μM) were added to a well in a 96-well plate. ROS production was initiated by the addition of f-MLP (30 μL of 0.1 μg/mL solution) to obtain a total volume of 200 μL per well. Chemiluminescence changes were measured for 40 min, at 2 min intervals, in a microplate reader (37 °C). The background chemiluminescence produced by nonstimulated cells was also determined. The percentage of inhibition was calculated by comparison to the stimulated control without the tested compound, at the maximum luminescence.

A375 = assay: LDH cell viability assay, melanoma cells; assay type: cell-based; settings: Homo sapiens, A-375; A375, 24 h, LDH assay; read-out: IC50
Experimental: (§3) Normal prostate epithelial cells (PNT2), two prostate cancer cell lines (Du145 and PC3), human keratinocytes (HaCaT), two melanoma cell lines (A375 and HTB140) and two colon cancer cell lines (HT29 and Caco-2) were treated with 3 at a concentration range 1.0–50.0 µg/mL. Viability of the cells was estimated using lactate dehydrogenase (LDH) assay.
(§4) Cytotoxic activity of 3 was tested on human cancer and normal cells, grouped in three panels: prostate, skin and gastrointestinal. The prostate panel comprised prostate cancer cell lines DU145 (ATCC HTB-81) and PC3 (ATCC CRL-1435) and prostate normal epithelial cells PNT2 (ECACC 95012613). Melanoma cell lines A375 (ATCC CRL-1619) and HTB140 (ATCC Hs 294T) together with human keratinocytes HaCaT (obtained as a kind gift of Prof. Marta Michalik, Department of Cell Biology, Jagiellonian University) were included in the skin panel. Two colon cancer cell lines, namely Caco-2 (ATCC HTB-37) and HT29 (ATCC HTB-38), constituted the gastrointestinal panel. Du145 cells were grown in a modified Eagle’s medium with low (1.0 g/L) glucose concentration; HT29, PC3 and PNT-2 cells were grown in Dulbecco’s modified Eagle’s medium (DMEM) and F12 HAM Nutrient Mixture; Caco-2 cells were grown in modified Eagle’s medium with nonessential amino acids (NEAA); and melanoma cells and keratinocytes were maintained in modified Eagle’s medium with high (4.5 g/L) glucose concentration. The culture media contained antibiotics and 10% fetal bovine serum (FBS). All cultures were maintained at 37 °C in a humidified, 5% CO2-containing atmosphere.
(§5) The examined compound (3) was diluted in the culture media from freshly made stock solution in MeOH (10 mg/mL) to the working concentrations (from 0 to 50 μg/mL). Cell viability was determined as described previously. […] Then, the culture medium was replaced with the medium containing different concentrations of the assessed compound (1–50 μg/mL). After 24 h of incubation, the viability of the cells was determined using colorimetric lactate dehydrogenase (LDH) assay in comparison to the controls to which corresponding aliquots of MeOH diluted with culture media were added. Cells grown in the medium without the tested compound were used as control I (negative), and the positive control (control II) was obtained by incubation of the cells in the medium containing 1% Triton X-100. LDH released from the damaged cells into the cell culture medium was quantified by measuring the absorbance at 490 nm using a Synergy II Biotek microplate reader. Cytotoxicities of the examined compounds were calculated as follows: ((absorbance of the tested sample−absorbance of control I)/(absorbance of control II−absorbance of control I)) × 100. Results were means of three independent measurements (± SD). Doxorubicin (Ebewe Pharma G.m.b.H., Unterach, Austria) was used as a reference cytostatic drug.

HTB140 = assay: LDH cell viability assay, melanoma cells; assay type: cell-based; settings: Homo sapiens; HTB140, 24 h, LDH assay; read-out: IC50
Experimental: as §3, §4, §5

[7] = test system: normal and cancer cell lines (prostate, skin, gastrointestinal panels); assay: LDH cytotoxicity, whole panel of normal and cancer cell lines; assay type: cell-based; settings: Homo sapiens; 24 h treatment, cell density 1.5 × 10^4; doxorubicin: except PC3 cells; read-out: IC50 range over the cell lines
Experimental: Cytotoxic activity of 3 was tested on human cancer and normal cells, grouped in three panels: prostate, skin and gastrointestinal. The prostate panel comprised prostate cancer cell lines DU145 (ATCC HTB-81) and PC3 (ATCC CRL-1435) and prostate normal epithelial cells PNT2 (ECACC 95012613). Melanoma cell lines A375 (ATCC CRL-1619) and HTB140 (ATCC Hs 294T) together with human keratinocytes HaCaT (obtained as a kind gift of Prof. Marta Michalik, Department of Cell Biology, Jagiellonian University) were included in the skin panel. Two colon cancer cell lines, namely Caco-2 (ATCC HTB-37) and HT29 (ATCC HTB-38), constituted the gastrointestinal panel. […]
The examined compound (3) was diluted in the culture media from freshly made stock solution in MeOH (10 mg/mL) to the working concentrations (from 0 to 50 μg/mL). Cell viability was determined as described previously. […] Then, the culture medium was replaced with the medium containing different concentrations of the assessed compound (1–50 μg/mL). After 24 h of incubation, the viability of the cells was determined using colorimetric lactate dehydrogenase (LDH) assay in comparison to the controls to which corresponding aliquots of MeOH diluted with culture media were added. […] LDH released from the damaged cells into the cell culture medium was quantified by measuring the absorbance at 490 nm using a Synergy II Biotek microplate reader. […]

HaCaT = assay: LDH cell viability assay, keratinocytes; assay type: cell-based, human; settings: Homo sapiens, 24 h, LDH assay, read-out: IC50
Experimental: as §3, §4, §5

PC3 = assay: LDH cell viability assay, prostate cancer cells; assay type: cell-based; settings: Homo sapiens, PC-3; PC3, 24 h, LDH assay; read-out: IC50
Experimental: as §3, §4, §5

PC3 cells = test system: PC3 cells; parameters: method as in PMID 33968193; settings: cited from earlier work
HepG2 cells = test system: HepG2 cells; parameters: method as in PMID 35520265; settings: cited from earlier work

Compound: 2α,5-epoxy-5,10-dihydroxy- 6α-angeloyloxy-9β-(3-methylbutyryloxy)-germacran-8α,12-olide
IC50 (cancer cells): > 7.6 µM | NF-κB inhibitory effect (NF-κB; concentration range 1–10 μM): NF-κB inhibitory effect was shown

Compound: 2β,5-epoxy-5,10-dihydroxy-6α-angeloyloxy-9β-isobutyryloxy-germacran-8α,12-olide
IC50 (cancer cells): > 7.9 µM | NF-κB inhibitory effect (NF-κB; concentration of 10 μM): NF-κB inhibitory effect was shown

IC50 (SAOS-2; SAOS-2, 24 h): 9.11 µM | IC50 (SAOS-2; SAOS-2, 48 h): 6.76 µM | IC50 (U-2 OS; 24 h): 7.77 µM | IC50 (U-2 OS; 48 h): 5.1 µM
Compound: C=C1C(=O)O[C@H]2[C@H]1[C@@H](O)[C@H](OC(=O)C(C)CC)[C@H](C)CCC(=O)[C@](C)(O)[C@@H]2OC(=O)/C(C)=C\C (stereo partly drawn) [Compound 1, 4β,8α-dihydroxy-5β-angeloyloxy-9β-(2-methylbutyryloxy)-3-oxo-germacran-6α,12-olide]
CCL2 production upon LPS stimulation [1]: significant and dose-dependent inhibition | Cytotoxicity to PMNs (propidium iodide staining) [2]: nontoxic | IL-1β production upon LPS stimulation [3]: significant and dose-dependent inhibition | IL-8 production upon LPS stimulation [4]: significant and dose-dependent inhibition | TNF-α secretion ([5]; lowest concentration (0.5 μM)): could not be achieved | TNF-α release ([5]; only in the two higher concentrations (1.0 and 2.5 μM), 24 h after LPS stimulation): statistically significant reduction | Cytotoxicity (MCF-7 cell line): resistant | ROS generation [6]: significantly and dose-dependently reduced ROS generation

IC50 (SAOS-2; SAOS-2, 24 h): 5.21 µM | IC50 (SAOS-2; SAOS-2, 48 h): 3.57 µM | IC50 (U-2 OS; 24 h): 3.18 µM | IC50 (U-2 OS; 48 h): 2.52 µM
Compound: C=C1C(=O)O[C@H]2[C@H]1[C@@H](O)[C@H](OC(=O)CC(C)C)[C@H](C)CCC(=O)[C@](C)(O)[C@@H]2OC(=O)/C(C)=C\C [Compound 2, 4β,8α-dihydroxy-5β-angeloyloxy-9β-(3-methylbutyryloxy)-3-oxo-germacran-6α,12-olide]
CCL2 production upon LPS stimulation [1]: significant and dose-dependent inhibition | Cytotoxicity to PMNs (propidium iodide staining) [2]: nontoxic | IL-1β production upon LPS stimulation [3]: significant and dose-dependent inhibition | IL-8 production upon LPS stimulation [4]: significant and dose-dependent inhibition | ROS generation [6]: significantly and dose-dependently reduced ROS generation

Compound: COc1cccc2c1C(=O)c1c(O)c3c(c(O)c1C2=O)C[C@@](O)(C(=O)CO)C[C@@H]3O[C@H]1C[C@H](N)[C@H](O)[C@H](C)O1 [Doxorubicin, reference compound]
IC50 (SAOS-2; SAOS-2, 24 h): 4.36 µM | IC50 (SAOS-2; SAOS-2, 48 h): 0.08 µM | IC50 (A375): 0.59 ± 0.04 µg/mL | IC50 (HTB140): > 5.71 µg/mL | IC50 (U-2 OS; 24 h): 1.87 µM | IC50 (U-2 OS; 48 h): 0.17 µM | IC50 [7]: 1.1 to 10.5 µM | IC50 (HaCaT): > 4.68 µg/mL | IC50 (PC3): > 50 µg/mL

Compound: C=C1C(=O)O[C@H]2[C@H]1[C@@H](OC(=O)C(C)C)C(=O)[C@H](C)CCC[C@](C)(O)[C@@H]2OC(=O)C(C)C [incaspitolide A, Incaspitolide A]
Apoptosis induction (PC3 cells): appeared to induce apoptosis

Compound: Cardivarolide H
Apoptosis induction (HepG2 cells): appeared to induce apoptosis

Reference: paper PMC8347481, “Germacranolides from Carpesium divaricatum: Some New Data on Cytotoxic and Anti-Inflammatory Activity” (Molecules, 2021)
